Test results taken from patent US20220040092A1, “Ready to use injectable formulations of Micafungin Sodium” (RK Pharma Solutions LLC, priority 2020, published 2022).
Where “and” joins values, the source holds several entries; their conditions need not be identical. Equal values may be shown once. Read-outs that look alike come from different tables or passages of the source. Starred links: 1 amine or outer side, 2 acyl side, 3 side chain; linkers in the order of their positions; H or OH if unused. Positions of bridges follow the written chain, without caps; N, C: chain ends. Non-standard residues stand in square brackets, D forms with d. Residues, ends and D or L forms follow the SMILES beside them. *: point of attachment. hTyr(3S-OH,4S-OH,3'-OSO3H) = N[C@H](C(=O)O)[C@H](O)[C@@H](O)c1ccc(O)c(OS(=O)(=O)O)c1; Orn(4R-OH,5R-OH) = O=C([C@H](C[C@@H](O)[C@@H](O)N[*:3])N[*:1])[*:2]; Pro(3S-OH,4S-Me) = C[C@H]1CN[C@H](C(=O)O)[C@H]1O; X1 = CCCCCOc1ccc(-c2cc(-c3ccc(C(=O)*)cc3)no2)cc1; Gln(3R-OH) = NC(=O)C[C@@H](O)[C@H](N)C(=O)O; Hyp = O=C(O)[C@@H]1C[C@@H](O)CN1

Columns and labels:
[1] = Storage stability of ready-to-use micafungin sodium solution in vials at 2-8° C. (purity and impurities by RRT); assay type: physicochemical; conditions: API (drug substance used)
Description: As used herein, “relative retention time” (“RRT”) is calculated by dividing the retention time of the peak of interest by the retention time of the main peak. Any peak with an RRT<1 elutes before the main peak, and any peak with an RRT>1 elutes after the main peak. […]

[2] = cited from earlier work

CCCCCOc1ccc(-c2cc(-c3ccc(C(=O)N[C@H]4C[C@@H](O)[C@@H](O)NC(=O)[C@@H]5[C@@H](O)[C@@H](C)CN5C(=O)[C@H]([C@H](O)CC(N)=O)NC(=O)[C@H]([C@H](O)[C@@H](O)c5ccc(O)c(OS(=O)(=O)O)c5)NC(=O)[C@@H]5C[C@@H](O)CN5C(=O)[C@H]([C@@H](C)O)NC4=O)cc3)no2)cc1 [Micafungin sodium, {5-[(1S,2S)-2-[(3S,6S,9S,11R,15S,18S,20R,21R,24S,25S,26S)-3-[(1R)-2-carbamoyl-1-hydroxyethyl]-11,20,21,25-tetrahydroxy-15-[(1R)-1-hydroxyethyl]-26-methyl-2,5,8,14,17,23-hexaoxo-18-[(4-{5-[4-(pentyloxy)phenyl]-1,2-oxazol-3-yl)benzene)amido]-1,4,7,13,16,22-hexaazatricyclo[22.3.0.0.0^9,13]heptacosan-6-yl]-1,2-dihydroxyethyl]-2-hydroxyphenyl} oxidanesulfonic acid] (X1-[Orn(4R-OH,5R-OH)]T[Hyp][hTyr(3S-OH,4S-OH,3'-OSO3H)][Gln(3R-OH)][Pro(3S-OH,4S-Me)]; lactam 1-C)
Imp at RRT 1.02 [1]: 0.24
Imp at RRT 0.93 ([1]; listed as API): 0.64 and 0.58
Imp. E ([1]; listed as API): 0.01 and 0.02
Purity ([1]; listed as API): 99.25 and 98.97
Solubility ([2]; N,N-dimethylformamide): freely soluble
Solubility ([2]; acetone): practically insoluble
Solubility ([2]; acetonitrile): practically insoluble
Solubility ([2]; diethyl ether): practically insoluble
Solubility ([2]; dimethylsulfoxide): freely soluble
Solubility ([2]; ethyl alcohol (95%)): practically insoluble
Solubility ([2]; isotonic sodium chloride solution): freely soluble
Solubility ([2]; methyl alcohol): slightly soluble
Solubility ([2]; n-hexane): practically insoluble
Solubility ([2]; water): freely soluble
